ChEMBL document CHEMBL5143575, “Anti-Lea monoclonal antibody SPM 522 recognizes an extended Lea epitope” (Bioorg Med Chem, 2022)

Tests used:
[1] = Inhibition of (Le(a)Le(x))14-BSA conjugate binding to mouse Anti-Le(a) monoclonal antibody SPM 522 preincubated with mAb for 1 hr followed by incubation with immobilized antigen BSA-conjugate for 3 hrs by competitive ELISA
Mus musculus = organism: Mus musculus; assay: Inhibition of (Le(a)Le(x))14-BSA conjugate binding to mouse Anti-Le(a) monoclonal antibody SPM 522 assessed as change in free energy preincubated with mAb for 1 hr followed by incubation with immobilized antigen BSA-conjugate for 3 hrs by competitive ELISA relative to control; settings: time 4.0 hrs

Row | SMILES | IC50 [1] [µM] | deltaG (Mus musculus) [kcal/mol]
1 | CO[C@@H]1O[C@H](CO)[C@H](O)[C@H](O[C@@H]2O[C@H](CO)[C@@H](O)[C@H](O[C@@H]3O[C@H](CO)[C@H](O)[C@H](O)[C@H]3O)[C@H]2NC(C)=O)[C@H]1O | 538 | 1.8
2 | CCCCCCO[C@@H]1O[C@H](CO)[C@@H](O[C@@H]2O[C@H](CO)[C@H](O)[C@H](O[C@@H]3O[C@H](CO)[C@@H](O[C@@H]4O[C@@H](C)[C@@H](O)[C@@H](O)[C@@H]4O)[C@H](O[C@@H]4O[C@H](CO)[C@H](O)[C@H](O)[C@H]4O)[C@H]3NC(C)=O)[C@H]2O)[C@H](O[C@@H]2O[C@@H](C)[C@@H](O)[C@@H](O)[C@@H]2O)[C@H]1NC(C)=O | 23 | 0
3 | CO[C@@H]1O[C@H](CO)[C@@H](O[C@@H]2O[C@@H](C)[C@@H](O)[C@@H](O)[C@@H]2O)[C@H](O[C@@H]2O[C@H](CO)[C@H](O)[C@H](O)[C@H]2O)[C@H]1NC(C)=O | 3090 | 0
4 | CCCCCCO[C@@H]1O[C@H](CO)[C@@H](O[C@@H]2O[C@H](CO)[C@H](O)[C@H](O[C@@H]3O[C@H](CO)[C@@H](O)[C@H](O[C@@H]4O[C@H](CO)[C@H](O)[C@H](O)[C@H]4O)[C@H]3NC(C)=O)[C@H]2O)[C@H](O[C@@H]2O[C@@H](C)[C@@H](O)[C@@H](O)[C@@H]2O)[C@H]1NC(C)=O (stereo in doubt) | 1350 | 2.4
5 | CCCCCCO[C@@H]1O[C@H](CO)[C@@H](O[C@@H]2O[C@H](CO)[C@H](O)[C@H](O[C@@H]3O[C@H](CO)[C@@H](O)[C@H](O[C@@H]4O[C@H](CO)[C@H](O)[C@H](O)[C@H]4O)[C@H]3NC(C)=O)[C@H]2O)[C@H](O)[C@H]1NC(C)=O | 1200 | 2.3
6 | CO[C@@H]1O[C@H](CO)[C@@H](O[C@@H]2O[C@@H](C)[C@H](O)[C@@H](O)[C@H]2O)[C@H](O[C@@H]2O[C@H](CO)[C@H](O)[C@H](O)[C@H]2O)[C@H]1NC(C)=O | 7020 | 0.5
